# Where no end group is shown, it is not given here.
# T1: formyl peptide receptor-like 1 (FPRL1) (human, UniProt P25090 1-351)
# T1 construct: in the other assays endogenous on human neutrophils, monocytes, synoviocytes (FLS, MH7A) or HUVECs; also called FPRL1/RBL; lipoxin A4 receptor (LXA4R)
# T1 sequence: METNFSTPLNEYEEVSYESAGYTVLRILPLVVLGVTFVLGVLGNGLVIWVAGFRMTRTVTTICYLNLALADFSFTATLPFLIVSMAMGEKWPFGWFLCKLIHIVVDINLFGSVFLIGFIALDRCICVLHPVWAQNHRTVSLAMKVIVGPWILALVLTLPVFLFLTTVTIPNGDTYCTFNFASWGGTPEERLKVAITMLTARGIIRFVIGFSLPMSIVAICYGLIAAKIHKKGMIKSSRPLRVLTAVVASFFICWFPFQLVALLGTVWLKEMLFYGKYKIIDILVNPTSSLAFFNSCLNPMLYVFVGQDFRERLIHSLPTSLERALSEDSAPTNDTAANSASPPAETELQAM
# T2: FPRL1 (Homo sapiens, UniProt P25090)
# T2 construct: expressed in transfected cells
# T2 sequence (P25090 1-351): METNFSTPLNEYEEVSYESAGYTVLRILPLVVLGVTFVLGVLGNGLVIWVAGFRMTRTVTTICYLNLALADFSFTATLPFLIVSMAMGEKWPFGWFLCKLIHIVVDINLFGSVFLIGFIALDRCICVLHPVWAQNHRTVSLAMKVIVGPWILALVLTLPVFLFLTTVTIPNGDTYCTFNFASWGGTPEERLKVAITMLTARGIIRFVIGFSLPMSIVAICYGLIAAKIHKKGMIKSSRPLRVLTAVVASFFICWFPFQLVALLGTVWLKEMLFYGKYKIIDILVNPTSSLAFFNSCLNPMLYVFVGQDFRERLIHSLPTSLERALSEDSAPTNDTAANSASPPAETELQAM
# What was measured:
# RA FLS = assay: Cell proliferation assay ([3H]-thymidine incorporation, cell counts) in RA FLS; type: cell-based, human; conditions: SAA 5 μM, 72 h, PTX 100 ng/ml, U73122 1 μM, PD98059 50 μM, LY294002 50 μM
# Experimental: Fibroblast-like synoviocytes (FLS) were prepared from synovial samples obtained from patients suffering from RA and osteoarthritis (OA), all of whom were also undergoing total joint replacement surgery. The FLS were isolated from the synovial tissues in accordance with a previously described procedure (Cho, C. S., M. L. Cho, S. Y. Min, W. U. Kim, D. J. Min, S. S. Lee, S. H. Park, J. Choe, and H. Y. Kim. 2000. CD40 engagement on synovial fibroblast up-regulates production of vascular endothelial growth factor. J. Immunol. 164: 5055-5061).
# In brief, fresh synovial tissues were minced into 2- to 3-mm pieces, then treated for 4 h with 4 mg/ml type I collagenase (Worthington Biochemical), and maintained in Dulbecco's Modified Eagle's Medium (DMEM) containing 10% FBS at 37° C. in an atmosphere containing 5% CO2. […] MH7A cells, the immortalized synoviocytes that harbor the SV40 T antigen, were grown in DMEM supplemented with 10% FBS, as previously described (Miyazawa, K, A. Mori, and H. Okudaira. 1998. Establishment and characterization of a novel human rheumatoid fibroblast-like synoviocyte line, MH7A, immortalized with SV40T antigen. J. Biochem. 124: 1153-1162), and then employed in some of the experiments. Human umbilical vein endothelial cells (HUVECs) were isolated from fresh human umbilical cords via collagenase (Worthington Biochemical) digestion, and then maintained in 20% FBS-containing M-199 medium (Sigma, St. Louis, Mo.), as previously described. All HUVECs were used after no more than five passages.
# The RA FLS, OA FLS, and HUVECs were plated onto 24-well culture dishes at a density of 2×10^4 cells/well, and then permitted to attach overnight. After 24 h of serum starvation, the cells were treated for 72 h with a variety of mitogens. [^3H]-thymidine (1 μCi) was added to each of the wells prior to the final 6 h of incubation. Cell growth was also evaluated via cell counts. Control and mitogen-treated cells were harvested by trypsinization, and the number of cells was determined with a hemocytometer, under ×100 magnification.
# human neutrophils [1] = assay: FACS analysis of surface CD11b expression on neutrophils; type: cell-based; conditions: 1 μM or 10 μM, 1 hour
# Experimental: Purified neutrophils were incubated with indicated concentration of PACAP27 (SEQ ID NO:1) for 1 hour. Cells (2×10^5/assay) were washed with FACS buffer (PBS containing 1% BSA and 0.1% sodium azide), incubated with human AB type serum for 10 minutes on ice, and stained with PE-labeled human CD11b antibody (BD PharMingen, San Diego, Calif.). They were then analyzed using a FACSCalibur system (BD Biosciences, San Jose, Calif.), as described in “Harfi, I., S. D'Hondt, F. Corazza, and E. Sariban. 2004. J. Immunol. 173:4154-4163”.
# [2] = biological target: T1, formyl peptide receptor-like 1 (FPRL1); assay: cell-based or functional assay
# HUVECs = assay: HUVEC wounding migration assay; type: cell-based, human; conditions: SAA 5 μM, WKYMVm 10 nM, VEGF 20 ng/ml; 12 h
# Experimental: […] After 12 h of incubation, migration was quantitated via counts of the cells migrating beyond the reference line. For the tube formation assay, the HUVECs were seeded on a layer of previously polymerized Matrigel (BD Biosciences) with SAA (SEQ ID NO:19) (5 μg/ml), WKYMVm (SEQ ID NO:5) peptide (10 nM), a specific ligand for FPRL1 (32, 33) or VEGF (20 ng/ml). After 18 h of incubation, the cell morphology was visualized via phase-contrast microscopy and photographed.
# FPRL1 [3] = biological target: T2, FPRL1; assay: Intracellular calcium mobilization (fura-2) in FPRL1/RBL cells; type: cell-based
# Experimental: FPRL1-expressing rat basophile leukemia (RBL)-2H3 (FPRL1/RBL), FPR-expressing RBL-2H3 (FPR/RBL), and vector-transfected RBL-2H3 (vector/RBL) were donated by Dr. Richard D. Ye (University of Illinois). FPRL1/RBL, FPR/RBL, and vector/RBL were maintained at 37° C. in a humidified 5% CO2 atmosphere in high glucose DMEM supplemented with 20% (vol/vol) heat-inactivated fetal calf serum and G418 ([…]). FPRL1/RBL, FPR/RBL, and vector/RBL were sub-cultured every three days. The prepared cells were used in the following examples.
# (§1) Intracellular calcium concentrations ([Ca^2+]i) were determined using Grynkiewicz's method with fura-2/AM, as described in “Grynkiewicz, G., M. Poenie, and R. Y. Tsien. 1985. […] J. Biol. Chem. 260:3440-3450”. Briefly, the cells prepared in Example 1.2 were incubated with 3 µM fura-2/AM at 37° C. for 50 minutes in fresh serum free RPMI 1640 medium with continuous stirring. The incubated cells (2×10^6) were aliquoted for each assay in Ca^2+-free Locke's solution (154 mM NaCl, 5.6 mM KCl, 1.2 mM MgCl2, 5 mM HEPES (pH 7.3), 10 mM glucose, and 0.2 mM EGTA). Fluorescence changes at 340 and 380 nm using a common emission wavelength of 500 nm were measured, and fluorescence ratios were converted to [Ca2+]i, as described in above Grynkiewicz, G. et al.
# FPRL1 [4] = biological target: T2, FPRL1; assay: Ligand binding analysis, 125I-labeled PACAP27 on FPRL1/RBL cells; conditions: compared with PACAP27
# Experimental: The ligand binding analysis was performed as described in “Bae, Y. S., H. Y. Lee, E. J. Jo, J. I. Kim, H. K. Kang, R. D. Ye, J. Y. Kwak, and S. H. Ryu. 2004. J. Immunol. 173:607-614”. Briefly, FPRL1/RBL cells were seeded at 1×10^5 cells/well onto a 24 well plate and cultured overnight. After blocking them with blocking buffer (33 mM HEPES, pH 7.5, 0.1% BSA in RPMI 1640 medium) for 2 hours, 50 pM of ^125I-labeled PACAP27 (Perkin-Elmer, Boston, Mass.) was added to the cells in binding buffer (PBS containing 0.1% BSA), in the presence of the test peptides (cold PACAP27 (SEQ ID NO:1), truncated-PACAPs, and chimeric PACAPs), and then incubated for 3 hours at 4° C. with continuous shaking. The cells were then washed 5 times with ice-cold binding buffer, and 200 µL of lysis buffer (20 mM Tris, pH 7.5, 1% Triton X-100) was added to each well for 20 minutes at room temperature. Lysates were then collected and counted using a γ-ray counter.
# human neutrophils [5] = assay: Intracellular calcium mobilization (fura-2) in human neutrophils; type: cell-based; conditions: 1 M peptide
# Experimental: Neutrophils were stimulated with 1 μM of PACAP27 (SEQ ID NO:1), PACAP38 (SEQ ID NO:2), or VIP (SEQ ID NO:3), and calcium concentrations were measured for 10 min. In order to measure EKR phosphorylation, each peptide hormones was used with 1 μM concentrations for 5 min. For cAMP measurement, each peptide hormones was used with 1 μM concentrations for 10 min.
# as §1
# [6] = biological target: T1, formyl peptide receptor-like 1 (FPRL1); assay: displacement of 125I-PACAP27 by unlabeled peptide on FPRL1/RBL cells
molecule,measurement,setting,value
COc1cccc(-c2cc(=O)c3ccccc3o2)c1N [PD98059],blockage of the proliferative and anti-apoptotic activities of SAA,RA FLS,almost complete blockage
polymyxin b-treated PACAP27: PACAP27 pretreated with 5 μM polymyxin b for 1 hour in 37° C. (HSDGIFTDSYSRYRKQMAVKKYLAAVL; not fully specified; ends and bridges not checked; listed as Homo sapiens),CD11b up-regulation compared with PACAP27,human neutrophils [1],no difference
Serum amyloid A (SAA) (from UniProt P0DJI8 19-94) (ligand),"intracellular Ca2+ in RA FLS (Fluo-3, calcium imaging), SAA 3 µM",[2],2.3 fold
VEGF,migratory activity of HUVECs relative to control cells,HUVECs,approximately 3 times
"tPACAP9-27: truncated PACAP27, SEQ ID NO:7 (SYSRYRKQMAVKKYLAAVL; ends and bridges not checked; listed as Homo sapiens)",[Ca2+]i increase / activation of FPRL1,FPRL1 [3],partially activate
same,binding affinity to FPRL1 (in words),FPRL1 [4],almost the same binding affinity as PACAP27
COc1ccc2c(c1)CC[C@@H]1[C@@H]2CC[C@]2(C)[C@@H](NCCCCCCN3C(=O)C=CC3=O)CC[C@@H]12 [U73122],blockage of the proliferative and anti-apoptotic activities of SAA,RA FLS,almost complete blockage
"VIP: vasoactive intestinal peptide, SEQ ID NO:3",[Ca2+]i increase / activation of FPRL1,FPRL1 [3],does not interact with FPRL1
same,[Ca2+]i increase in human neutrophils,human neutrophils [5],neither PACAP38 (SEQ ID NO:2) nor VIP (SEQ ID NO:3) increased [Ca2+]i
"PACAP38: pituitary adenylate cyclase-activating polypeptide, 38 amino acids, SEQ ID NO:2 (HSDGIFTDSYSRYRKQMAVKKYLAAVLGKRYKQRVKNK; ends and bridges not checked; listed as Homo sapiens)",[Ca2+]i increase in human neutrophils,human neutrophils [5],neither PACAP38 (SEQ ID NO:2) nor VIP (SEQ ID NO:3) increased [Ca2+]i
boiled PACAP27: PACAP27 heat-inactivated for 10 minutes in boiling water (HSDGIFTDSYSRYRKQMAVKKYLAAVL; not fully specified; ends and bridges not checked; listed as Homo sapiens),CD11b up-regulation compared with PACAP27,human neutrophils [1],no difference
"SYSRYRKQMAVKKYLAAVL (ends and bridges not checked, Synthetic truncation of PACAP27; the range is counted on PACAP27, by the peptide's name) [tPACAP9-27 (truncated PACAP)]",binding result,[6],binds
"HSDGIFTDNYSRYRKQMAVKKYLAAVL (ends and bridges not checked, PACAP27 with the VIP residue at position 9; bought from GenScript) [cPACAP9VIP (chimeric PACAP)]",Kd,[6],51.2 nM
"HSDGIFTDSYSRLRKQMAVKKYLAAVL (ends and bridges not checked, PACAP27 with the VIP residue at position 13; bought from GenScript) [cPACAP13VIP (chimeric PACAP)]",Kd,[6],51.2 nM

# Source: patent publication US20100291089A1, “LIGAND OF REGULATING IMMUNE RESPONSE, AND USE THEREOF IN TREATING AN IMMUNE RESPONSE-RELATED DISEASE” (POSTECH ACADEMY-INDUSTRY FOUNDATION, priority 2005, published 2010)
